Reference: US11236087B2, “Highly active pyrazolo-piperidine substituted indole-2-carboxamides active against the hepatitis B virus (HBV)” (AiCuris GmbH & Co. KG, priority 2017, dated 2022)

Legend:
[1] = test system: HBV; experiment: Determination of HBV DNA from the supernatants of HepAD38 cells (anti-HBV activity); type: cell-based, hepatitis B virus; settings: Hepatitis B virus, 144 h; HBV DNA in HepAD38 supernatant, day 6, qPCR; read-out: Cell Activity (EC50)
Description: Determination of HBV DNA from the Supernatants of HepAD38 Cells
The anti-HBV activity was analysed in the stable transfected cell line HepAD38, which has been described to secrete high levels of HBV virion particles (Ladner et al., 1997). In brief, HepAD38 cells were cultured at 37° C. at 5% CO2 and 95% humidity in 200 μl maintenance medium, which was Dulbecco's modified Eagle's medium/Nutrient Mixture F-12 (Gibco, Karlsruhe), 10% fetal bovine serum (PAN Biotech Aidenbach) supplemented with 50 μg/ml penicillin/streptomycin (Gibco, Karlsruhe), 2 mM L-glutamine (PAN Biotech, Aidenbach), 400 μg/ml G418 (AppliChem, Darmstadt) and 0.3 μg/ml tetracycline. Cells were subcultured once a week in a 1:5 ratio, but were usually not passaged more than ten times. For the assay 60,000 cells were seeded in maintenance medium without any tetracycline into each well of a 96-well plate and treated with serial half-log dilutions of test compound. To minimize edge effects the outer 36 wells of the plate were not used but were filled with assay medium. On each assay plate six wells for the virus control (untreated HepAD38 cells) and six wells for the cell control (HepAD38 cells treated with 0.3 μg/ml tetracycline) were allocated, respectively. In addition, one plate set with reference inhibitors like BAY 41-4109, entecavir, and lamivudine instead of screening compounds were prepared in each experiment. In general, experiments were performed thrice in triplicates. At day 6 HBV DNA from 100 μl filtrated cell culture supernatant (AcroPrep Advance 96 Filter Plate, […] Supor membran, PALL GmbH, Dreieich) was automatically purified on the MagNa Pure LC instrument using the MagNA Pure 96 DNA and Viral NA Small Volume Kit (Roche Diagnostics, Mannheim) according to the instructions of the manufacturer. EC50 values were calculated from relative copy numbers of HBV DNA In brief, 5 μl of the 100 μl eluate containing HBV DNA were subjected to PCR LC480 Probes Master Kit (Roche) together with 1 μM antisense primer […], 0.5 μM sense primer […], 0.3 μM hybprobes […]-FL and LC640-[…]-PH (TIBMoBiol, Berlin) to a final volume of 12.5 μl. The PCR was performed on the Light Cycler 480 real time system (Roche Diagnostics, Mannheim) using the following protocol: Pre-incubation for 1 min at 95° C., amplification: 40 cycles×(10 sec at 95° C., 50 sec at 60° C., 1 sec at 70° C.), cooling for 10 sec at 40° C. Viral load was quantitated against known standards using HBV plasmid DNA of pCH-9/3091 (Nassal et al., 1990, Cell 63: 1357-1363) and the LightCycler 480 SW 1.5 software (Roche Diagnostics, Mannheim) and EC50 values were calculated using non-linear regression with GraphPad Prism 6 (GraphPad Software Inc., La Jolla, USA).

[2] = Cell viability assay (AlamarBlue) in HepAD38 cells; settings: human

Compound | EC50 [1] | CC50 at 6 days [2]
O=C(c1cc2ccccc2[nH]1)N1CCc2[nH]nc(C(=O)N(C3CCOCC3)C3CC3)c2C1 [Example 293, N-cyclopropyl-5-(1H-indole-2-carbonyl)-N-(oxan-4-yl)-1H,4H,5H,6H,7H-pyrazolo[4,3-c]pyridine-3-carboxamide] | < 100 µM | > 10 µM
CN(C(=O)c1[nH]nc2c1CN(C(=O)c1cc3cccc(F)c3[nH]1)CC2)C1CC1 [Example 319, N-cyclopropyl-5-(7-fluoro-1H-indole-2-carbonyl)-N-methyl-2H,4H,5H,6H,7H-pyrazolo[4,3-c]pyridine-3-carboxamide] | < 1 µM | > 10 µM
CN(C(=O)c1[nH]nc2c1CN(C(=O)c1cc3ccc(F)cc3[nH]1)CC2)C1CC1 [Example 320, N-cyclopropyl-5-(6-fluoro-1H-indole-2-carbonyl)-N-methyl-2H,4H,5H,6H,7H-pyrazolo[4,3-c]pyridine-3-carboxamide] | < 1 µM | > 10 µM
CN(C(=O)c1[nH]nc2c1CN(C(=O)c1cc3cc(F)ccc3[nH]1)CC2)C1CC1 [Example 321, N-cyclopropyl-5-(5-fluoro-1H-indole-2-carbonyl)-N-methyl-2H,4H,5H,6H,7H-pyrazolo[4,3-c]pyridine-3-carboxamide] | < 1 µM | > 10 µM
O=C(c1cc2c(Cl)cc(F)cc2[nH]1)N1CCc2[nH]nc(C34CC(C3)C4)c2C1 [Example 335, 2-(3-{bicyclo[1.1.1]pentan-1-yl}-1H,4H,5H,6H,7H-pyrazolo[4,3-c]pyridine-5-carbonyl)-4-chloro-6-fluoro-1H-indole] | < 1 µM | > 10 µM
O=C(c1cc2c(Cl)cccc2[nH]1)N1CCc2n[nH]c(C3CCC3)c2C1 [Example 387, 4-chloro-2-{3-cyclobutyl-2H,4H,5H,6H,7H-pyrazolo[4,3-c]pyridine-5-carbonyl}-1H-indole] | < 1 µM | > 10 µM
O=C(c1cc2c(F)cc(F)cc2[nH]1)N1CCc2n[nH]c(C3CCC3)c2C1 [Example 388, 2-{3-cyclobutyl-2H,4H,5H,6H,7H-pyrazolo[4,3-c]pyridine-5-carbonyl}-4,6-difluoro-1H-indole] | < 1 µM | > 10 µM
O=C(c1cc2ccc(F)c(F)c2[nH]1)N1CCc2n[nH]c(C3CCC3)c2C1 [Example 389, 2-{3-cyclobutyl-2H,4H,5H,6H,7H-pyrazolo[4,3-c]pyridine-5-carbonyl}-6,7-difluoro-1H-indole] | < 1 µM | > 10 µM
O=C(c1cc2cc(F)c(F)cc2[nH]1)N1CCc2n[nH]c(C3CCC3)c2C1 [Example 390, 2-{3-cyclobutyl-2H,4H,5H,6H,7H-pyrazolo[4,3-c]pyridine-5-carbonyl}-5,6-difluoro-1H-indole] | < 1 µM | > 10 µM
O=C(c1cc2c(F)c(F)ccc2[nH]1)N1CCc2n[nH]c(C3CCC3)c2C1 [Example 391, 2-{3-cyclobutyl-2H,4H,5H,6H,7H-pyrazolo[4,3-c]pyridine-5-carbonyl}-4,5-difluoro-1H-indole] | < 1 µM | > 10 µM
O=C(c1cc2cccc(F)c2[nH]1)N1CCc2n[nH]c(C3CCC3)c2C1 [Example 392, 2-{3-cyclobutyl-2H,4H,5H,6H,7H-pyrazolo[4,3-c]pyridine-5-carbonyl}-7-fluoro-1H-indole] | < 1 µM | > 10 µM
O=C(c1cc2ccc(F)cc2[nH]1)N1CCc2n[nH]c(C3CCC3)c2C1 [Example 393, 2-{3-cyclobutyl-2H,4H,5H,6H,7H-pyrazolo[4,3-c]pyridine-5-carbonyl}-6-fluoro-1H-indole] | < 1 µM | > 10 µM
O=C(c1cc2cc(F)ccc2[nH]1)N1CCc2n[nH]c(C3CCC3)c2C1 [Example 394, 2-{3-cyclobutyl-2H,4H,5H,6H,7H-pyrazolo[4,3-c]pyridine-5-carbonyl}-5-fluoro-1H-indole] | < 1 µM | > 10 µM
